Reference: patent US20240182431A1, “NEW CONTRAST AGENT FOR USE IN MAGNETIC RESONANCE IMAGING” (Bayer Aktiengesellschaft, priority 2021, published 2024)

What was measured:
[1] = Partition coefficient (logP butanol/buffer); type: physicochemical; conditions: 1-butanol / 50 mM Tris-HCl, pH 7.4, room temperature
[2] = bovine plasma instead of human plasma, 1.5 T, 37° C., from Rohrer et al.; cited from earlier work
[3] = Excretion study in rats (5 days) and residual gadolinium organ distribution (7 days); type: in vivo, rat; conditions: male rats, 0.1 mmol Gd/kg bw i.v.; for Σ organs and carcass: 7 d post injection
Method: The excretion and organ distribution of Example 1 and 15 were determined in male rats (Han-Wistar, n=3). The compound was administered as a sterile aqueous solution (50 mmol Gd/L) as a bolus in the tail vein of the animals. The dose was 0.1 mmol Gd/kg bw.
Urine was collected in the following time periods 0-1 h, 1-3 h, 3-6 h, 6-24 h, 1-2 d and 2-5 d post injection […] and feces 0-1 d, 1-2 d and 2-5 d post injection. As a control, 3 animals were treated in the same way with RC1. On day 7 the animals were sacrificed, and the following organs were excised: blood, liver, kidney, spleen, heart, lung, brain, muscle, skin, stomach, gut, bone and bone marrow. The remaining carcass was freeze dried and ground to a fine powder. The Gd concentration in the organs and the carcass was determined by ICP-MS (ICP-MS Agilent 7500a, Waldbronn, Germany). The compounds are excreted via dual pathway (liver and kidney). Less than 1% of the administered dose was present in the body 7 days after the injection.

[4] = Biliary elimination in bile duct cannulated rats; conditions: BDC rats, i.v. bolus
Method: All animals are initially anesthetized using a body weight-adjusted intramuscular injection of a mixture (1+2) of xylazine hydrochloride (20 mg/mL, Rompun 2%, Bayer Vital GmbH, Leverkusen) and ketamine hydrochloride (100 mg/mL, Ketavet, Pfizer, Pharmacia GmbH, Berlin) using 1 mL/kg body weight. The continuous anesthesia of the animals is achieved by the intravenous injection of 1.5 mL per hour (Braun perfusor infusion of 1+2, 1:20 saline, xylazine hydrochloride 20 mg/mL, Rompun 2%, Bayer Vital GmbH, Leverkusen and ketamine hydrochloride 100 mg/mL, Ketavet, Pfizer, Pharmacia GmbH, Berlin) via tail vein (Introcan, 24G, yellow). The animals received 0.1 mol Gd/kg bw as intravenous bolus injection via tail vein (50 mmol Gd/L formulation). Bile was sampled 0-0.5 h, 0.5-1 h, 1-2 h, 2-3 h und 3-4 h post injection. […] The bile fractions (n=3 times 10 μL) were dried for 2 h at 90° C. and 50 μL 65% nitric acid (HNO3, Fa. Fisher, Optima Grade #1219010) and 30 μL hydrogen peroxide 30% (H2O2 Fa VWR Chemicals, AnalaR NORMAPUR, #18J024022) were added and processed in microwave oven (5 cycles: 5 min 40 W, 5 min 120 W, 10 min 200 W, 10 min 320 W and 25 min 400 W, Fa. CEM, Mars5 Xpress).

OATP1B1 = target: T1, OATP1B1 (Homo sapiens, UniProt Q9Y6L6); assay: Uptake into stable transfected OATP1B1 HEK 293 cells; type: cell-based; conditions: 100 μM, 40 min, relative to RC1
T1 sequence (Q9Y6L6 1-691): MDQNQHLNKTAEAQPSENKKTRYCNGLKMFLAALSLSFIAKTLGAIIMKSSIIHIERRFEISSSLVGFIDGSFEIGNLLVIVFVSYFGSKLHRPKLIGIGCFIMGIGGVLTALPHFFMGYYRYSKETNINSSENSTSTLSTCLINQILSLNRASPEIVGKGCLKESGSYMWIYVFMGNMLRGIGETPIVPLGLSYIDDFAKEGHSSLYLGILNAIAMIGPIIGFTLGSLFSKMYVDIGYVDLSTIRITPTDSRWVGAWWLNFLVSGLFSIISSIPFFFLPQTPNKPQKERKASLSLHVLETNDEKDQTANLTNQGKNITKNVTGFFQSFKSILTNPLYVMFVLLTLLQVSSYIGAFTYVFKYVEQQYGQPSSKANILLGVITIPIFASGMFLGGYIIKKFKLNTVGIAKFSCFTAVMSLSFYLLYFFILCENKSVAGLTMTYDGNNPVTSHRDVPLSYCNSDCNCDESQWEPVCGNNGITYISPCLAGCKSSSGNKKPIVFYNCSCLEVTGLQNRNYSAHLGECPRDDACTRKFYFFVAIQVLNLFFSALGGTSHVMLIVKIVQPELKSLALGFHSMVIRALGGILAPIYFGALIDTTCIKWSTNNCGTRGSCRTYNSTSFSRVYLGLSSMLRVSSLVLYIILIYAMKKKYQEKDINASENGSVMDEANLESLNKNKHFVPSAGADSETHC
Method: Cryopreserved cells were shortly thawed in water bath and diluted in 10 mL warm culture medium (37° C.). After medium change the cells were grown for 3 d in a 25 cm^2 cell culture flask. After 3 to 5 d the cells were transferred into 75 cm^2 flasks. […] All test items were prepared in transport buffer at a final concentration of 100 μM from stock solutions (180 to 500 mM concentration). The OATP1B1 HEK 293 cells were incubated with test solutions (test item in transport buffer 500 μL) for 40 min on a thermoshaker without shaking (PHMP, Fa. Grant Bio). Triplicates were performed for each test item. After incubation the cells were washed with 2 mL of cold PBS (+) buffer (Dulbeccos PBS+, Fa. Gibco). The OATP1B1 HEK 293 cells were lysed by addition of 500 μL cold 0.01% Triton-X 100 in Millipore water for 1 h. […] After 1 h 500 μL of 1 nM Terbium ICP-MS standard was added in 2% nitric acid and 0.01% Triton 100.

[5] = cited from earlier work

O=C([O-])CN1CCN(CC(=O)[O-])CCN([C@H](CO)[C@H](O)CO)CCN(CC(=O)[O-])CC1.[Gd+3] (racemic) [RC3, gadobutrol, reference compound]
Log P (butanol/buffer) [1]: −2.22
r1 human plasma [2]: 5.2 L/mmol/s

CCOc1ccc(CCOCC(C(=O)O)N2CCN(CC(=O)[O-])CCN(CC(=O)[O-])CCN(CC(=O)[O-])CC2)cc1.[Gd+3] (stereo not drawn) [Example 1, gadolinium 2,2′,2″-(10-{1-carboxy-2-[2-(4-ethoxyphenyl)ethoxy]ethyl}-1,4,7,10-tetraazacyclododecane-1,4,7-triyl)triacetate]
Log P (butanol/buffer) [1]: −0.98
Excretion Urine ([3]; 0-1 h post injection): 39.8 ± 6.8% Dose
Excretion Feces ([3]; 0-1 d post injection): 55.6 ± 5.6% Dose
Excretion Urine ([3]; 1-3 h post injection): 40.3 ± 6.8% Dose
Excretion Feces ([3]; 1-2 d post injection): 56.9 ± 6.6% Dose
Excretion Urine ([3]; 1-2 d post injection): 40.9 ± 7.4% Dose
Excretion Feces ([3]; 2-5 d post injection): 57.0 ± 6.6% Dose
Excretion Urine ([3]; 2-5 d post injection): 40.9 ± 7.4% Dose
Excretion Urine ([3]; 3-6 h post injection): 40.3 ± 6.8% Dose
Excretion Urine ([3]; 6-24 h post injection): 40.8 ± 7.4% Dose
Σ organs and carcass [3]: 0.65 ± 0.07% Dose
Total recovery [3]: 98.6 ± 2.1% Dose
Biliary excretion, Mean ± SD (cumulative) ([4]; bile fraction 0-0.5 h): 55.5 ± 1.7% of injected dose
Biliary excretion, Mean ± SD (cumulative) ([4]; bile fraction 0.5-1 h): 62.6 ± 0.7% of injected dose
Biliary excretion, Mean ± SD (cumulative) ([4]; bile fraction 1-2 h): 65.1 ± 1.3% of injected dose
Biliary excretion, Mean ± SD (cumulative) ([4]; bile fraction 2-3 h): 65.6 ± 1.6% of injected dose
Biliary excretion, Mean ± SD (cumulative) ([4]; bile fraction 3-4 h): 65.8 ± 1.7% of injected dose

CCOCCOCCOc1ccc(CCC[C@@H](C(=O)O)N2CCN([C@@H](CO)C(=O)[O-])CCN([C@@H](CO)C(=O)[O-])CCN([C@@H](CO)C(=O)[O-])CC2)cc1.[Gd+3] [Example 15, gadolinium (2S,2′S,2″S)-2,2′,2″-{10-[(1S)-1-carboxy-4-{4-[2-(2-ethoxyethoxy)ethoxy]phenyl}butyl]-1,4,7,10-tetraazacyclododecane-1,4,7-triyl}tris(3-hydroxypropanoate)]
Log P (butanol/buffer) [1]: −1.00
Excretion Urine ([3]; 0-1 h post injection): 12.6 ± 11.1% Dose
Excretion Feces ([3]; 0-1 d post injection): 78.6 ± 6.2% Dose
Excretion Urine ([3]; 1-3 h post injection): 17.3 ± 3.4% Dose
Excretion Feces ([3]; 1-2 d post injection): 80.0 ± 5.3% Dose
Excretion Urine ([3]; 1-2 d post injection): 17.7 ± 3.3% Dose
Excretion Feces ([3]; 2-5 d post injection): 80.0 ± 5.3% Dose
Excretion Urine ([3]; 2-5 d post injection): 17.7 ± 3.3% Dose
Excretion Urine ([3]; 3-6 h post injection): 17.4 ± 3.3% Dose
Excretion Urine ([3]; 6-24 h post injection): 17.6 ± 3.3% Dose
Σ organs and carcass [3]: 0.11 ± 0.03% Dose
Total recovery [3]: 97.9 ± 5.4% Dose

CCOCCOCCOc1ccc(CCCC(C(=O)O)N2CCN(CC(=O)[O-])CCN(CC(=O)[O-])CCN(CC(=O)[O-])CC2)cc1.[Gd+3] (stereo not drawn) [Example 25, gadolinium 2,2′,2″-{10-[1-carboxy-4-{4-[2-(2-ethoxyethoxy)ethoxy]phenyl}butyl]-1,4,7,10-tetraazacyclododecane-1,4,7-triyl}triacetate]
Log P (butanol/buffer) [1]: −1.00
Uptake into OATP1B1-HEK 293 cells (OATP1B1): 301 % of RC1

O=C([O-])CN1CCN(CC(=O)[O-])CCN(C(Cc2ccc(OCC(F)(F)C(F)F)cc2)C(=O)O)CCN(CC(=O)[O-])CC1.[Gd+3] (stereo not drawn) [Example 46, gadolinium 2,2′,2″-(10-{1-carboxy-2-[4-(2,2,3,3-tetrafluoropropoxy)phenyl]ethyl}-1,4,7,10-tetraazacyclododecane-1,4,7-triyl)triacetate]
Log P (butanol/buffer) [1]: −0.57

O=C([O-])CN1CCN(CC(=O)[O-])CCN([C@H](Cc2ccc(OCC(F)(F)F)cc2)C(=O)O)CCN(CC(=O)[O-])CC1.[Gd+3] [Example 47, gadolinium 2,2′,2″-(10-{(1R)-1-carboxy-2-[4-(2,2,2-trifluoroethoxy)phenyl]ethyl}-1,4,7,10-tetraazacyclododecane-1,4,7-triyl)triacetate]
Log P (butanol/buffer) [1]: −0.77

O=C([O-])CN(CCN(CC(=O)[O-])CC(=O)[O-])CCN(CC(=O)[O-])C(COCc1ccccc1)C(=O)[O-].[Gd+3].[H+].[H+] (stereo not drawn) [Gd-BOPTA, gadobenic acid]
secreted into the bile ([5]; Seale et al. 2009): 3-to-5%

CCOc1ccc(C[C@@H](CN(CCN(CC(=O)[O-])CC(=O)[O-])CC(=O)[O-])N(CC(=O)[O-])CC(=O)[O-])cc1.[Gd+3].[H+].[H+] [Gd-EOB-DTPA, gadoxetic acid]
excreted into the bile ([5]; in vivo): up to 50 % of the administered dose

O=C([O-])CN(CCN(CC(=O)[O-])CC(=O)[O-])CCN(CC(=O)[O-])C(COCc1ccccc1)C(=O)[O-].[Gd+3] (stereo not drawn) [RC2, Gd-BOPTA, reference compound]
Log P (butanol/buffer) [1]: −2.07
r1 human plasma [2]: 4.1 L/mmol/s
